{
  "source": "patent US20190083462A1",
  "about": "“PREVENTION OF NSAID ENTEROPATHY WITH MICROBIOTA-DERIVED TRYPTOPHAN-METABOLITE” (THE TEXAS A&M UNIVERSITY SYSTEM, priority 2016, published 2019)",
  "key": {"[1]": {"system": "intestinal epithelial cells", "settings": "cited from earlier work"}, "small intestinal mucosa": {"system": "small intestinal mucosa", "experiment": "RNA sequencing (RNA-Seq) of the distal small intestinal mucosa", "type": "in vivo, mice", "settings": "indole co-administered with NSAID; degree of up-regulation vs control mice", "from_the_text": "(§1) Eight- to 10-week-old specific-pathogen-free C57BL/6J mice were purchased and allowed to acclimate for 2 weeks. Mice were fed standardized laboratory rodent diet and sterile water ad libitum. Mice were randomly divided into the following 4 groups (n=5 mice/group): 1) NSAID (indomethacin); 2) indole; 3) NSAID+indole; and, 4) untreated controls. Mice were then rehoused on the basis of treatment group assignment, with 5 animals/group-cage. To induce NSAID enteropathy, mice in group 1 were gavaged once daily with indomethacin (5 mg/kg; for 7 days; Sigma Aldrich, St. Louis, Mo.) dissolved in dimethylysulfoxide (DMSO) (Sigma Aldrich, St. Louis, Mo.) and further diluted in phosphate buffered saline (PBS). Mice in group 2 received indole by gavage (20 mg/kg; once daily for 7 days; Sigma Aldrich, St. Louis, Mo.) dissolved in sterile water warmed to 55° C. Mice in group 3 received indole co-administered with indomethacin by gavage at the dosages described above. All mice were gavaged with equal volumes (200 μL) and equal concentrations of DMSO (0.001%).\nFeces were collected daily by placing individual animals in sterile plastic cups that were RNase- and DNase-free until they passed feces. The mice were immediately returned to their home cages and the feces immediately flash frozen at −80° C. […]\nRNA was extracted from the mucosal scrapings using an RNeasy mini kit (QIAGEN, Redwood City, Calif.) following the manufacturer's instructions and including on-column DNase treatment. RNA quantity was determined using a Nanodrop spectrophotometer (Fisher Thermoscientific) and the quality was assessed using the Nano6000 chip on a Bioanalyzer 2100(Agilent Technologies). […] Differentially expressed genes were determined using EdgeR based on the matrix of gene counts (Robinson M D, McCarthy D J, Smyth G K. edgeR: a Bioconductor package for differential expression analysis of digital gene expression data. Bioinformatics (Oxford, England) 2010; 26:139-40). Gene lists were analyzed through use of QIAGEN's Ingenuity® Pathway Analysis (IPA, QIAGEN, Redwood City, Calif. http://www.qiagen.com/ingenuity). […]"}, "[2]": {"system": "fecal tryptophan metabolites", "experiment": "Fecal tryptophan metabolites by LC-MS", "type": "in vivo, mice", "from_the_text": "as §1\nFeces were collected daily by placing individual animals in sterile plastic cups that were RNase- and DNase-free until they passed feces. The mice were immediately returned to their home cages and the feces immediately flash frozen at −80° C. All animals were euthanized via CO2 asphyxiation on day 8 (i.e., after 7 days of treatment). The small intestine was harvested, opened longitudinally, rinsed with ice-cold PBS, and the distal ⅓ of the intestinal mucosa was scraped for tissue gene expression analysis. The remaining small intestine was fixed in 4% paraformaldehyde, Swiss-rolled, paraffin-embedded, and stained with hematoxylin and eosin. The spleen and mesenteric lymph nodes (MLN) were harvested, and immediately placed in ice cold RPMI-1640-c+10% fetal calf serum (FCS: Life Technologies, Carlsbad, Calif.), homogenized, and prepared as a single cell suspension for flow cytometric analysis as previously described (Wang N, Strugnell R, Wijburg O, Brodnicki T. Measuring bacterial load and immune responses in mice infected with Listeria monocytogenes. Journal of Visualized Experiments: JoVE 2011).\nMetabolites from the fecal contents were extracted using a solvent-based method as previously described (Sridharan G V, Choi K, Klemashevich C, Wu C, Prabakaran D, Pan L B, Steinmeyer S, Mueller C, Yousofshahi M, Alaniz R C, et al. Prediction and quantification of bioactive microbiota metabolites in the mouse gut. Nature Communications 2014; 5:5492). Briefly, fecal pellets were homogenized using a homogenizer (Omni International) with equal volume of cold methanol and half volume of chloroform. The samples were then centrifuged at 10,000 g at 4° C. (Thermo Fisher Scientific) for 10 min. Supernatant was passed through a 70-μm sterile nylon cell strainer (Falcon) and 0.6 ml of ice cold water was added. The samples were vortex and centrifuged again at 10,000 g for 5 minutes. The upper phase and lower phase were collected and 400 μl of upper phase was dried to a pellet using a vacufuge (Eppendorf, Hauppauge, N.Y.), and then reconstituted in 50 μl of methanol/water (1:1, v/v). The samples were stored at −80° C. until analysis. Tryptophan metabolites in the samples were detected and quantified on a triple quadrupole linear ion trap mass spectrometer (3200 QTRAP, AB SCIEX, Foster City, Calif.) coupled to a binary pump HPLC (Prominence LC-20, Shimazu, Concord, Ontario, Canada)."}, "fecal microbiota": {"system": "fecal microbiota", "experiment": "Fecal microbiota 16S rRNA sequencing (ANOSIM, SIMPER)", "type": "in vivo, mice", "settings": "for mean % abundance: day 7 feces"}, "C57BL/6J mice": {"system": "C57BL/6J mice", "experiment": "Histology and small intestinal morphometric measurements", "type": "in vivo", "settings": "Swiss-rolled H & E stained small intestinal sections, n=5/group", "protocol": "Eight- to 10-week-old specific-pathogen-free C57BL/6J mice were purchased and allowed to acclimate for 2 weeks. Mice were fed standardized laboratory rodent diet and sterile water ad libitum. […] Mice were then rehoused on the basis of treatment group assignment, with 5 animals/group-cage. To induce NSAID enteropathy, mice in group 1 were gavaged once daily with indomethacin (5 mg/kg; for 7 days; Sigma Aldrich, St. Louis, Mo.) dissolved in dimethylysulfoxide (DMSO) (Sigma Aldrich, St. Louis, Mo.) and further diluted in phosphate buffered saline (PBS). […] All mice were gavaged with equal volumes (200 μL) and equal concentrations of DMSO (0.001%).\nThe slides were scored as previously described for intestinal inflammation (Jia Q, Lupton J R, Smith R, Weeks B R, Callaway E, Davidson L A, Kim W, Fan Y Y, Yang P, Newman R A, et al. Reduced colitis-associated colon cancer in Fat-1 (n-3 fatty acid desaturase) transgenic mice. Cancer Research 2008; 68:3985-91). Briefly, mucosal injury was determined by the following parameters scored from 0 (no evidence) to 3 (marked): mucosal ulceration, mucosal erosion, and presence of squamified epithelium. Inflammatory changes were scored similarly based on the following parameters: lymphocytic infiltration, plasma cell infiltration, and neutrophilic infiltration. Finally, an overall evidence of injury score was used to document total injury graded from 0 (none) to 4 (marked). Morphological parameters were obtained from digitally scanned slides using SPOT vr 5.0 software. Three sets of measurements from 3 separate sections were recorded for each animal by an observer blinded to treatment group. Measurements consisted of villus height, crypt depth, and submucosal mural thickness."}, "[3]": {"settings": "unweighted Unifrac distance metric, day 7"}},
  "data": [
    {"smiles": "c1ccc2[nH]ccc2c1", "note": "[Indole, indole]", "values": [
      {"measurement": "NF-κB signaling", "setting": "[1]", "result": "inhibit"},
      {"measurement": "anti-inflammatory effects and expression of genes associated with tight cell junctions", "setting": "[1]; in vitro, earlier work of the inventors", "result": "has anti-inflammatory effects on intestinal epithelial cells and upregulates expression of genes associated with tight cell junctions"},
      {"measurement": "transcription of pro-inflammatory cytokines (IL-1α, IL-1β, TNF, IL-6) and chemokines (CXCL1, CXCL3, CXCL2, CXCL5, CCL2, CCL7)", "setting": "small intestinal mucosa", "result": "not significantly different than control mice"},
      {"measurement": "Magnitude of change in fecal concentration between Days 0 and 7", "setting": "[2]; Indole, group effect ↑", "result": 5.3},
      {"measurement": "fecal indole concentrations relative to controls", "setting": "[2]; feces", "result": "significantly more indole"},
      {"measurement": "abundance of members of the phyla Firmicutes and Bacteroidetes", "setting": "fecal microbiota; fecal 16S rRNA sequences, Day 0 vs Day 7", "result": "no significant difference"},
      {"measurement": "mean % abundance", "setting": "fecal microbiota; phylum Unassigned, Other", "result": "1.90E−03", "unit": "%"},
      {"measurement": "mean % abundance", "setting": "fecal microbiota; phylum k_Bacteria, Other", "result": "3.81E−03", "unit": "%"},
      {"measurement": "mean % abundance", "setting": "fecal microbiota; phylum k_Bacteria, p_Acidobacteria", "result": 0, "unit": "%"},
      {"measurement": "mean % abundance", "setting": "fecal microbiota; phylum k_Bacteria, p_Actinobacteria", "result": 0.0381, "unit": "%"},
      {"measurement": "mean % abundance", "setting": "fecal microbiota; phylum k_Bacteria, p_Bacteroidetes", "result": 24.6, "unit": "%"},
      {"measurement": "mean % abundance", "setting": "fecal microbiota; phylum k_Bacteria, p_Cyanobacteria", "result": "9.51E−03", "unit": "%"},
      {"measurement": "mean % abundance", "setting": "fecal microbiota; phylum k_Bacteria, p_Firmicutes", "result": 74.7, "unit": "%"},
      {"measurement": "mean % abundance", "setting": "fecal microbiota; phylum k_Bacteria, p_Proteobacteria", "result": 0.0285, "unit": "%"},
      {"measurement": "mean % abundance", "setting": "fecal microbiota; phylum k_Bacteria, p_Tenericutes", "result": 0.656, "unit": "%"},
      {"measurement": "mean % abundance", "setting": "fecal microbiota; phylum k_Bacteria, p_Verrucomicrobia", "result": "1.90E−03", "unit": "%"},
      {"measurement": "Pairwise ANOSIM R-value vs Control", "setting": "fecal microbiota; [3]", "result": 0.2},
      {"measurement": "Pairwise ANOSIM R-value vs NSAID", "setting": "fecal microbiota; [3]", "result": 0.2615},
      {"measurement": "Pairwise ANOSIM R-value vs NSAID + Indole", "setting": "fecal microbiota; [3]", "result": 0.1938},
      {"measurement": "microscopic pathology scores", "setting": "C57BL/6J mice", "result": "not different"}
    ]}
  ]
}
